Source: the NIST ThermoML archive (doi:10.1016/j.jct.2018.03.007)

Assay: xn = mol fraction of the nth substance listed
Conditions: 100 kPa, Liquid; for speed of sound: Linear variable-path acoustic interferometer; for mass density: Vibrating tube method

CCn1cc[n+](C)c1.O=S(=O)([O-])O [1-ethyl-3-methylimidazolium hydrogen sulfate] + CCCO
speed of sound [m/s], Frequency=2 MHz
Conditions | x1 = 0.0519 | x1 = 0.1097 | x1 = 0.2473 | x1 = 0.3301 | x1 = 0.425 | x1 = 0.5348 | x1 = 0.6634 | x1 = 0.816 | x1 = 0.9035 | x1 = 1
298.15 K | 1272.3 | 1342.3 | 1486.2 | 1561.1 | 1640.8 | 1724.4 | 1808.4 | 1892 | 1937.7 | 1982.8
303.15 K | 1254.7 | 1324 | 1467.1 | 1542 | 1621.3 | 1704.9 | 1788.3 | 1871.6 | 1917.9 | 1962.9
308.15 K | 1237.1 | 1305.9 | 1448.3 | 1522.1 | 1601.4 | 1684.2 | 1767.3 | 1850.6 | 1898.1 | 1943.1
313.15 K | 1219.7 | 1288.1 | 1429.1 | 1502.6 | 1581.7 | 1664.9 | 1747.8 | 1830.1 | 1878.1 | 1923.2

mass density [kg/m3]
Conditions | x1 = 0.0519 | x1 = 0.1097 | x1 = 0.2473 | x1 = 0.3301 | x1 = 0.425 | x1 = 0.5348 | x1 = 0.6634 | x1 = 0.816 | x1 = 0.9035 | x1 = 1
298.15 K | 859.54 | 918.5 | 1034.63 | 1091.59 | 1147.59 | 1202.62 | 1256.73 | 1310.71 | 1338.05 | 1365.75
303.15 K | 855.59 | 914.64 | 1030.95 | 1088.01 | 1144.15 | 1199.35 | 1253.6 | 1307.54 | 1334.87 | 1362.62
308.15 K | 851.62 | 910.8 | 1027.23 | 1084.39 | 1140.69 | 1196.07 | 1250.5 | 1304.42 | 1331.73 | 1359.53
313.15 K | 847.65 | 906.93 | 1023.51 | 1080.78 | 1137.24 | 1192.77 | 1247.33 | 1301.31 | 1328.62 | 1356.41

CCn1cc[n+](C)c1.O=S(=O)([O-])O [1-ethyl-3-methylimidazolium hydrogen sulfate] + CCO
speed of sound [m/s], Frequency=3 MHz
Conditions | x1 = 0.0281 | x1 = 0.0878 | x1 = 0.1779 | x1 = 0.3378 | x1 = 0.4731 | x1 = 0.577 | x1 = 0.6689 | x1 = 0.7759 | x1 = 0.8797 | x1 = 1
298.15 K | 1190.1 | 1289.8 | 1416.2 | 1577.8 | 1698.6 | 1780.2 | 1836.4 | 1893.6 | 1943.4 | 1982.8
303.15 K | 1170.6 | 1267.3 | 1393.3 | 1558.4 | 1675.8 | 1755.7 | 1816.2 | 1871.9 | 1922.1 | 1962.9
308.15 K | 1152.1 | 1245.3 | 1370.9 | 1538.6 | 1653 | 1731.4 | 1796 | 1850.2 | 1900.8 | 1943.1
313.15 K | 1132.9 | 1222.8 | 1348 | 1516.6 | 1630.3 | 1707.9 | 1773.8 | 1828.5 | 1879.5 | 1923.2

mass density [kg/m3]
Conditions | x1 = 0.0281 | x1 = 0.0878 | x1 = 0.1779 | x1 = 0.3378 | x1 = 0.4731 | x1 = 0.577 | x1 = 0.6689 | x1 = 0.7759 | x1 = 0.8797 | x1 = 1
298.15 K | 829.67 | 910.66 | 1007.45 | 1129.95 | 1203.92 | 1248.74 | 1281.87 | 1314.38 | 1340.71 | 1365.75
303.15 K | 825.5 | 906.7 | 1003.74 | 1126.52 | 1200.65 | 1245.56 | 1278.69 | 1311.18 | 1337.51 | 1362.62
308.15 K | 821.28 | 902.7 | 999.98 | 1123.06 | 1197.38 | 1242.38 | 1275.52 | 1308 | 1334.34 | 1359.53
313.15 K | 817 | 898.63 | 996.14 | 1119.54 | 1194.05 | 1239.13 | 1272.31 | 1304.78 | 1331.14 | 1356.41

CCn1cc[n+](C)c1.O=S(=O)([O-])O [1-ethyl-3-methylimidazolium hydrogen sulfate] + C[S+](C)[O-]
speed of sound [m/s], Frequency=2 MHz
Conditions | x1 = 0.0494 | x1 = 0.1349 | x1 = 0.2377 | x1 = 0.3638 | x1 = 0.5219 | x1 = 0.6517 | x1 = 0.7261 | x1 = 0.8081 | x1 = 0.9182 | x1 = 1
298.15 K | 1530.5 | 1600.5 | 1672.7 | 1746.9 | 1823.3 | 1875.5 | 1902 | 1928.7 | 1961 | 1982.8
303.15 K | 1513.4 | 1582.9 | 1654.4 | 1728.2 | 1804.2 | 1856.1 | 1882.4 | 1909 | 1941.2 | 1962.9
308.15 K | 1495.9 | 1564.8 | 1635.9 | 1709.3 | 1784.9 | 1836.6 | 1862.8 | 1889.3 | 1921.5 | 1943.1
313.15 K | 1478.6 | 1547 | 1617.6 | 1690.5 | 1765.7 | 1817.1 | 1843.2 | 1869.6 | 1901.6 | 1923.2

mass density [kg/m3]
Conditions | x1 = 0.0494 | x1 = 0.1349 | x1 = 0.2377 | x1 = 0.3638 | x1 = 0.5219 | x1 = 0.6517 | x1 = 0.7261 | x1 = 0.8081 | x1 = 0.9182 | x1 = 1
298.15 K | 1128.82 | 1175.73 | 1219.12 | 1259.43 | 1297.19 | 1320.97 | 1332.42 | 1343.71 | 1357.03 | 1365.75
303.15 K | 1124.11 | 1171.37 | 1214.91 | 1255.51 | 1293.61 | 1317.58 | 1329.14 | 1340.51 | 1353.89 | 1362.62
308.15 K | 1119.4 | 1166.99 | 1210.85 | 1251.66 | 1290.03 | 1314.21 | 1325.9 | 1337.32 | 1350.73 | 1359.53
313.15 K | 1114.68 | 1162.54 | 1206.72 | 1247.85 | 1286.51 | 1310.9 | 1322.64 | 1334.1 | 1347.61 | 1356.41
